Consider 24 compounds from US10053458B2, “Pyrimidine-2,4-diamine derivative and anticancer pharmaceutical composition comprising same as effective ingredient” (KOREA RESEARCH INSTITUTE OF CHEMICAL TECHNOLOGY, priority 2014, dated 2018).

Usually GI50 stands for the concentration at which growth is held to half of that of the control. One may read the IC50 as the concentration at which inhibition is half-maximal.

One experiment concerns H2228. Kind of experiment: Cancer cell proliferation inhibition (SRB/MTS), H2228. To be noted: Homo sapiens, NCI-H2228, 72 h, read-out: H2228 GI50.
A further experiment concerns H3122. Kind of experiment: Cancer cell proliferation inhibition (SRB/MTS), H3122. To be noted: Homo sapiens, NCI-H3122, 72 h, read-out: H3122 GI50.
Another experiment relates to BaF3 EML4-ALK WT cells. The experiment in a line: Cytotoxicity on BaF3 cell transfected with EML4-ALK WT (WST-1). To be noted: Ba/F3 EML4-ALK, 72 h, read-out: BaF3 EML4-ALK WT, IC50 of the cytotoxicity. A general note: Tetrazolium dyes change colour on reduction, which living cells bring about.

Procedure for H2228: (§1) Cancer cell lines used in the experiments were all human-derived cancer cell lines, specifically H2228 and H3122, which are non-small cell lung cancer cell lines.
(§2) The cancer cell proliferation inhibition was measured using the MTS assay as follows. […] Each culture medium was placed in an incubator for 4 hours, taken out and left at room temperature for 10 minutes.
Procedure for H3122: as §1, §2

On to `COc1cc2c(cc1Nc1ncc(Cl)c(Nc3ccccc3S(=O)(=O)C(C)C)n1)C(=O)NCC2` [Example 44], for which the GI50 with H2228 and in the experiment on H3122 was less than 50 nM in each case. Besides, the IC50 in the experiment on BaF3 EML4-ALK WT cells is less than 50 nM.
For `COc1cc2c(cc1Nc1ncc(Cl)c(Nc3ccccc3S(=O)(=O)C(C)C)n1)CNCC21CC1` [Example 96, 5-chloro-N4-(2-(isopropylsulfonyl)phenyl)-N2-(6-methoxy-2,3-dihydro-1H-spiro(cyclopropane-1,4-isoquinolin)-7-yl)pyrimidine-2,4-diamine], the GI50 in the experiment on H2228 and in the experiment on H3122 was less than 50 nM each time. Moreover, the IC50 in the experiment with BaF3 EML4-ALK WT cells was less than 50 nM.
As for `CCC1(C)NCCc2cc(Nc3ncc(Cl)c(Nc4ccccc4S(=O)(=O)C(C)C)n3)c(OC)cc21` (stereo not drawn) [Example 73, 5-chloro-N4-(2-(isopropylsulfonyl)phenyl)-N2-(l-ethyl-7-methoxy-1-methyl-1,2,3,4-tetrahydroisoquinolin-6-yl)pyrimidine-2,4-diamine], the GI50 with H2228 and with H3122 was less than 50 nM in each case. Further, the IC50 in the experiment on BaF3 EML4-ALK WT cells is less than 50 nM.
As to `CC(C)Oc1cc2c(cc1Nc1ncc(Cl)c(Nc3ccccc3S(=O)(=O)C(C)C)n1)CCNC2(C)C` [Example 71, 5-chloro-N4-(2-(isopropylsulfonyl)phenyl)-N2-(7-isopropoxy-1,1-dimethyl-1,2,3,4-tetrahydroisoquinolin-6-yl)pyrimidine-2,4-diamine], the 50% growth inhibitory concentration (GI50) in the experiment with H2228 and in the experiment with H3122 was less than 50 nM throughout. Moreover, the IC50 in the experiment with BaF3 EML4-ALK WT cells was less than 50 nM.
On to `COc1cc2c(cc1Nc1ncc(Cl)c(Nc3ccccc3S(=O)(=O)C(C)C)n1)CCNCC2(C)C` [Example 105, 5-chloro-N4-(2-(isopropylsulfonyl)phenyl)-N2-(8-methoxy-1,1-dimethyl-2,3,4,5-tetrahydro-1H-benzo[d]azepin-7-yl)pyrimidine-2,4-diamine], for which the GI50 in the experiment on H2228 and with H3122 was less than 50 nM in each case. Besides, the IC50 in the experiment with BaF3 EML4-ALK WT cells was less than 50 nM.
Consider `COc1cc2c(cc1Nc1ncc(Cl)c(Nc3ccccc3S(=O)(=O)C(C)C)n1)C(C)(C)CNC2` [Example 12, 5-chloro-N4-(2-(isopropylsulfonyl)phenyl)-N2-(7-methoxy-4,4-dimethyl-1,2,3,4-tetrahydroisoquinolin-6-yl)pyrimidine-2,4-diamine], for which the GI50 in the experiment with H2228 and in the experiment with H3122 was less than 50 nM in each case. Besides, the half-inhibitory concentration (IC50) with BaF3 EML4-ALK WT cells is less than 50 nM.
For `COc1cc2c(cc1Nc1ncc(Cl)c(Nc3ccccc3S(=O)(=O)C(C)C)n1)CCN(C1CCNCC1)C2` [Example 24], the GI50 with H2228 and in the experiment on H3122 was less than 50 nM in each case. In the experiment with BaF3 EML4-ALK WT cells, the IC50 was less than 50 nM.
In the case of `CC(C)Oc1cc2c(cc1Nc1ncc(Cl)c(Nc3ccccc3S(=O)(=O)C(C)C)n1)CCNC2C` (stereo not drawn) [Example 70, 5-chloro-N4-(2-(isopropylsulfonyl)phenyl)-N2-(7-isopropoxy-1-methyl-1,2,3,4-tetrahydroisoquinolin 6 yl)pyrimidine-2,4-diamine], the GI50 in the experiment on H2228 and in the experiment with H3122 was less than 50 nM in each case. Further, the IC50 in the experiment on BaF3 EML4-ALK WT cells is less than 50 nM.
For `COc1cc2c(cc1Nc1ncc(Cl)c(Nc3ccccc3S(=O)(=O)C(C)C)n1)C(C)(C)CN(C(=O)C(F)(F)F)C2` [Example 11, 1-(6-(5-chloro-4-(2-(isopropylsulfonyl)phenylamino)pyrimidin-2-yl)amino-7-methoxy-4,4-dimethyl-3,4-dihydroisoquinolin-2(1H)-yl)-2,2,2-trifluoroethane-1-one], the GI50 in the experiment with H2228 and in the experiment with H3122 was less than 50 nM each time. Further, in the experiment on BaF3 EML4-ALK WT cells, the half-inhibitory concentration (IC50) was less than 50 nM.
With `COc1cc2c(cc1Nc1ncc(Cl)c(Nc3ccccc3S(=O)(=O)C(C)C)n1)CCN(C(=O)C(F)(F)F)C2(C)C` [Example 32, 1-(6-(5-chloro-4-(2-(isopropylsulfonyl)phenylamino)pyrimidin-2-yl)amino-7-methoxy-1,1-dimethyl-3,4-dihydroisoquinolin-2(1H)-yl)-2,2,2-trifluoroethane-1-one], the GI50 with H2228 and with H3122 was less than 50 nM throughout. Further, the IC50 in the experiment with BaF3 EML4-ALK WT cells was less than 50 nM.
Regarding `COc1cc2c(cc1Nc1ncc(Cl)c(Nc3ccccc3S(=O)(=O)C(C)C)n1)CN(C(=O)CO)CC2(C)C` [Example 95], the concentration for 50% growth inhibition (GI50) with H2228 and with H3122 was less than 50 nM throughout. Besides, in the experiment on BaF3 EML4-ALK WT cells, the IC50 is less than 50 nM.
On to `COc1cc2c(cc1Nc1ncc(Cl)c(Nc3ccccc3S(=O)(=O)C(C)C)n1)CCCNC2(C)C` [Example 104, 5-chloro-N4-(2-(isopropylsulfonyl)phenyl)-N2-(8-methoxy-1,1-dimethyl-2,3,4,5-tetrahydro-1H-benzo[c]azepin-7-yl)pyrimidine-2,4-diamine], for which the GI50 in the experiment with H2228 and with H3122 was less than 50 nM throughout. Moreover, the IC50 with BaF3 EML4-ALK WT cells is less than 50 nM.
In the case of `COc1cc2c(cc1Nc1ncc(Cl)c(Nc3ccccc3S(=O)(=O)C(C)C)n1)C1(CCCCC1)CN(C(=O)C(F)(F)F)C2` [Example 15, 1-(6-(5-chloro-4-(2-(isopropylsulfonyl)phenylamino)pyrimidin-2-yl)amino-7-methoxy-1H-spiro[cyclohexane-1,4-isoquinoline]-2(3H)-yl)-2,2,2-trifluoroethane-1-one], the GI50 in the experiment with H2228 and in the experiment on H3122 was less than 50 nM throughout. The half-inhibitory concentration (IC50) in the experiment with BaF3 EML4-ALK WT cells was less than 50 nM.
In the case of `COc1cc2c(cc1Nc1ncc(Cl)c(Nc3ccccc3S(=O)(=O)C(C)C)n1)C1CNCCN1CC2(C)C` (stereo not drawn) [Example 86, 5-chloro-N4-(2-(isopropylsulfonyl)phenyl)-N2-(9-methoxy-7,7-dimethyl-1,3,4,6,7,11b-hexahydro-2H-pyrazino[2,1-a]isoquinolin-10-yl)pyrimidine-2,4-diamine], the GI50 with H2228 and in the experiment with H3122 was less than 50 nM throughout. The IC50 in the experiment on BaF3 EML4-ALK WT cells was less than 50 nM.
As to `CCN1Cc2cc(Nc3ncc(Cl)c(Nc4ccccc4S(=O)(=O)C(C)C)n3)c(OC)cc2C(C)(C)C1` [Example 92, 5-chloro-N4-(2-(isopropylsulfonyl)phenyl)-N2-(2-ethyl-6-methoxy-4,4-trimethyl-1,2,3,4-tetrahydroisoquinolin-7-yl)pyrimidine-2,4-diamine], the GI50 with H2228 and in the experiment with H3122 was less than 50 nM in each case. For the same compound, in the experiment with BaF3 EML4-ALK WT cells, the IC50 was less than 50 nM.
In the case of `CCN1Cc2cc(Nc3ncc(Cl)c(Nc4ccccc4S(=O)(=O)C(C)C)n3)c(OC(C)C)cc2C(C)(C)C1` [Example 82, 5-chloro-N4-(2-(isopropylsulfonyl)phenyl)-N2-(2-ethyl-6-isopropoxy-4,4-dimethyl-1,2,3,4-tetrahydroisoquinolin-7-yl)pyrimidine-2,4-diamine], the GI50 in the experiment on H2228 and with H3122 was less than 50 nM in each case. Further, the IC50 with BaF3 EML4-ALK WT cells was less than 50 nM.
Regarding `CCC(C)Oc1cc2c(cc1Nc1ncc(Cl)c(Nc3ccccc3S(=O)(=O)C(C)C)n1)CCN(C(=O)C(F)(F)F)C2` (stereo not drawn) [Example 21], the 50% growth inhibitory concentration (GI50) in the experiment on H2228 and in the experiment with H3122 was less than 50 nM in each case. In addition, the concentration for half-maximal inhibition (IC50) with BaF3 EML4-ALK WT cells is less than 50 nM.
As for `COc1cc2c(c(Br)c1Nc1ncc(Cl)c(Nc3ccccc3S(=O)(=O)C(C)C)n1)CCNC2(C)C` [Example 87, 5-chloro-N4-(2-(isopropylsulfonyl)phenyl)-N2-(5-bromo-7-methoxy-1,1-dimethyl-1,2,3,4-tetrahydroisoquinolin-6-yl)pyrimidine-2,4-diamine], the GI50 with H2228 and in the experiment on H3122 was less than 50 nM in each case. Moreover, the IC50 with BaF3 EML4-ALK WT cells was less than 50 nM.
For the compound `CCC1(CC)NCCc2cc(Nc3ncc(Cl)c(Nc4ccccc4S(=O)(=O)C(C)C)n3)c(OC)cc21` [Example 74, 5-chloro-N4-(2-(isopropylsulfonyl)phenyl)-N2-(1,1-diethyl-7-methoxy-1,2,3,4-tetrahydroisoquinolin-6-yl)pyrimidine-2,4-diamine], the GI50 with H2228 and in the experiment with H3122 was less than 50 nM throughout. Besides, the IC50 in the experiment with BaF3 EML4-ALK WT cells was less than 50 nM.
As for `CCOc1cc2c(cc1Nc1ncc(Cl)c(Nc3ccccc3S(=O)(=O)C(C)C)n1)CN(CC)CC2(C)C` [Example 81, 5-chloro-N4-(2-(isopropylsulfonyl)phenyl)-N2-(6-ethoxy-2-ethyl-4,4-dimethyl-1,2,3,4-tetrahydroisoquinolin-7-yl)pyrimidine-2,4-diamine], the GI50 in the experiment with H2228 and in the experiment with H3122 was less than 50 nM each time. Moreover, the IC50 in the experiment with BaF3 EML4-ALK WT cells was less than 50 nM.
`COc1cc2c(cc1Nc1ncc(Cl)c(Nc3ccccc3S(=O)(=O)C(C)C)n1)CNC2` [Example 1, 5-chloro-N4-(2-(isopropylsulfonyl)phenyl)-N2-(6-methoxyisoindolin-5-yl)pyrimidine-2,4-diamine]: the GI50 in the experiment with H2228 is 15 nM; in the experiment on H3122, less than 50 nM. For the same compound, the IC50 in the experiment with BaF3 EML4-ALK WT cells was less than 50 nM.
As to `CC(C)S(=O)(=O)c1ccccc1Nc1nc(Nc2cc3c(cc2OC(F)F)C(C)(C)NCC3)ncc1Cl` [Example 100, 5-chloro-N4-(2-(isopropylsulfonyl)phenyl)-N2-(7-difluoromethoxy-1,1-dimethyl-1,2,3,4-tetrahydroisoquinolin-6-yl)pyrimidine-2,4-diamine], the concentration for 50% growth inhibition (GI50) with H2228 and with H3122 was less than 50 nM in each case. Also, the half-maximal inhibitory concentration (IC50) in the experiment with BaF3 EML4-ALK WT cells was less than 50 nM.
Regarding `CC(C)Oc1cc2c(cc1Nc1ncc(Cl)c(Nc3ccccc3S(=O)(=O)C(C)C)n1)CCN(C(=O)C(F)(F)F)C2` [Example 17, 1-(6-(5-chloro-4-(2-(isopropylsulfonyl)phenylamino)pyrimidin-2-yl)amino-7-isopropoxy-3,4-dihydroisoquinolin-2(1H)-yl)-2,2,2-trifluoroethane-1-one], the GI50 with H2228 and in the experiment on H3122 was less than 50 nM each time. In addition, in the experiment on BaF3 EML4-ALK WT cells, the half-maximal inhibitory concentration (IC50) was less than 50 nM.
Regarding `CCOc1cc2c(cc1Nc1ncc(Cl)c(Nc3ccccc3S(=O)(=O)C(C)C)n1)CCNC2(C)C` [Example 99, 5-chloro-N4-(2-(isopropylsulfonyl)phenyl)-N2-(7-ethoxy-1,1-dimethyl-1,2,3,4-tetrahydroisoquinolin-6-yl)pyrimidine-2,4-diamine], the GI50 in the experiment on H2228 and in the experiment on H3122 was less than 50 nM each time. Further, the IC50 with BaF3 EML4-ALK WT cells is less than 50 nM.
